Measured values reported in PubChem BioAssay (NCI).
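96-well plates; 48 h exposure; 5 concentrations. Endpoints by linear interpolation between flanking doses. Not reached: highest tested concentration assigned. GI50 is the concentration that inhibits growth by half. The concentration for full growth arrest is given as TGI.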

What was measured:
Assay in all cases: inhibition of tumour cell growth, NCI panel, 48 h
[1] = tested on: MOLT-4 leukemia
[2] = tested on: HT29 colon
[3] = tested on: UACC-62 melanoma
[4] = tested on: NCI-H226 lung
[5] = tested on: SF-268 CNS
[6] = tested on: LOX IMVI melanoma
[7] = tested on: SF-295 CNS
[8] = tested on: SW-620 colon
[9] = tested on: A549 NSCLC
[10] = tested on: NCI-H23 lung
[11] = tested on: HCT-15 colon
[12] = tested on: HOP-62 NSCLC
[13] = tested on: HS 578T breast
[14] = tested on: OVCAR-4 ovarian
[15] = tested on: MDA-MB-435
[16] = tested on: SK-MEL-2 melanoma
[17] = tested on: DU-145 prostate
[18] = tested on: MALME-3M melanoma
[19] = tested on: TK-10 renal
[20] = tested on: NCI/ADR-RES ovarian
[21] = tested on: OVCAR-5 ovarian
[22] = tested on: RXF 393 renal
[23] = tested on: SN12C renal
[24] = tested on: OVCAR-3 ovarian
[25] = tested on: 786-0 renal
[26] = tested on: RPMI-8226 leukemia
[27] = tested on: M14 melanoma
[28] = tested on: COLO 205 colon
[29] = tested on: MCF7 breast
[30] = tested on: OVCAR-8 ovarian
[31] = tested on: CAKI-1 renal
[32] = tested on: ACHN renal
[33] = tested on: HCT-116 colon
[34] = tested on: T-47D breast
[35] = tested on: UO-31 renal
[36] = tested on: BT-549 breast
[37] = tested on: CCRF-CEM leukemia
[38] = tested on: SK-MEL-28 melanoma
[39] = tested on: PC-3 prostate
[40] = tested on: IGROV1 ovarian
[41] = tested on: U251 CNS
[42] = tested on: UACC-257 melanoma
[43] = tested on: K-562 leukemia
[44] = tested on: SK-MEL-5 melanoma
[45] = tested on: SNB-75 CNS
[46] = tested on: SNB-19 CNS
[47] = tested on: SR leukemia
[48] = tested on: HL-60(TB) leukemia
[49] = tested on: KM12 colon
[50] = tested on: EKVX NSCLC
[51] = tested on: HCC-2998 colon
[52] = tested on: SK-OV-3 ovarian
[53] = tested on: MDA-MB-231 breast
[54] = tested on: SF-539 CNS
[55] = tested on: NCI-H522 lung
[56] = tested on: NCI-H460 lung
[57] = tested on: A498 renal
[58] = tested on: HOP-92 NSCLC

## C[N+]1([O-])CCC(O)(C2CC2)CC1 (stereo not drawn)
[1]
  TGI: > 100 µM
[2]
  TGI: > 100 µM
[3]
  TGI: > 100 µM
[4]
  TGI: > 100 µM
[5]
  TGI: > 100 µM
[6]
  TGI: > 100 µM
[7]
  TGI: > 100 µM
[8]
  TGI: > 100 µM
[9]
  TGI: > 100 µM
[10]
  TGI: > 100 µM
[11]
  TGI: > 100 µM
[12]
  TGI: > 100 µM
[13]
  TGI: > 100 µM
[14]
  TGI: > 100 µM
[15]
  TGI: > 100 µM
[16]
  TGI: > 100 µM
[17]
  TGI: > 100 µM
[18]
  TGI: > 100 µM
[19]
  TGI: > 100 µM
[20]
  TGI: > 100 µM
[21]
  TGI: > 100 µM
[22]
  TGI: > 100 µM
[23]
  TGI: > 100 µM
[24]
  TGI: > 100 µM
[25]
  TGI: > 100 µM
[26]
  TGI: > 100 µM
[27]
  TGI: > 100 µM
[28]
  TGI: > 100 µM
[29]
  TGI: > 100 µM
[30]
  TGI: > 100 µM
[31]
  TGI: > 100 µM
[32]
  TGI: > 100 µM
[33]
  TGI: > 100 µM
[34]
  TGI: > 100 µM
[35]
  TGI: > 100 µM
[36]
  TGI: > 100 µM
[37]
  TGI: > 100 µM
[38]
  TGI: > 100 µM
[39]
  TGI: > 100 µM
[40]
  TGI: > 100 µM
[41]
  TGI: > 100 µM
[42]
  TGI: > 100 µM
[43]
  TGI: > 100 µM
[44]
  TGI: > 100 µM
[45]
  TGI: > 100 µM
[46]
  TGI: > 100 µM
[47]
  TGI: > 100 µM
[48]
  TGI: > 100 µM
[49]
  TGI: > 100 µM
[50]
  TGI: > 100 µM
[51]
  TGI: > 100 µM
[52]
  TGI: > 100 µM
[53]
  TGI: > 100 µM

## C=C1C(=O)O[C@@H]2[C@@H]3O[C@@H](C[C@@H]13)[C@](C)(O)CC/C=C(\C)CCC[C@H]2C
[1]
  GI50: 1.39 µM
  TGI: 3.37 µM
[2]
  GI50: 3.69 µM
  TGI: > 33.9 µM
[3]
  GI50: 3.51 µM
  TGI: 14.1 µM
[4]
  GI50: 2.08 µM
  TGI: 7.4 µM
[5]
  GI50: > 100 µM
  TGI: > 100 µM
[6]
  GI50: 1.51 µM
  TGI: 3 µM
[7]
  GI50: 9.38 µM
  TGI: 23.9 µM
[8]
  GI50: 0.739 µM
  TGI: 2.31 µM
[9]
  GI50: 9.21 µM
  TGI: 25.2 µM
[10]
  TGI: 3.67 µM
[11]
  GI50: 1.39 µM
  TGI: 2.74 µM
[12]
  TGI: 31.7 µM
[13]
  GI50: 5.99 µM
  TGI: 24.9 µM
[14]
  GI50: 2.38 µM
  TGI: > 23 µM
[15]
  GI50: 1.97 µM
  TGI: 6.17 µM
[16]
  GI50: 9.32 µM
  TGI: 24.2 µM
[17]
  GI50: 3.08 µM
  TGI: 12.6 µM
[18]
  GI50: 0.18 µM
  TGI: 2.61 µM
[19]
  GI50: 1.5 µM
  TGI: 3.26 µM
[54]
  GI50: 13 µM
  TGI: 25.7 µM
[20]
  GI50: 0.523 µM
  TGI: 2.13 µM
[21]
  GI50: 3.19 µM
  TGI: 12.6 µM
[55]
  GI50: 1.65 µM
  TGI: 4.05 µM
[22]
  GI50: 1.77 µM
[23]
  GI50: 2.06 µM
  TGI: 6.64 µM
[24]
  GI50: 1.65 µM
  TGI: 3.86 µM
[25]
  GI50: 2.56 µM
  TGI: 9.03 µM
[26]
  GI50: 0.258 µM
  TGI: 1.47 µM
[27]
  GI50: 1.83 µM
  TGI: 3.75 µM
[56]
  GI50: > 100 µM
  TGI: > 100 µM
[57]
  GI50: 20.9 µM
  TGI: 35.5 µM
[29]
  GI50: > 100 µM
  TGI: > 100 µM
[30]
  GI50: 1.91 µM
  TGI: 10.4 µM
[31]
  GI50: 0.957 µM
  TGI: 2.59 µM
[32]
  GI50: 0.926 µM
  TGI: 2.34 µM
[34]
  TGI: > 22.6 µM
[35]
  GI50: 1.25 µM
  TGI: 2.79 µM
[36]
  GI50: 1.84 µM
  TGI: 4.86 µM
[37]
  GI50: 0.394 µM
  TGI: 1.91 µM
[38]
  GI50: 2.36 µM
  TGI: > 21.8 µM
[39]
  GI50: 1.76 µM
  TGI: 5.27 µM
[40]
  GI50: 1.06 µM
  TGI: 4.92 µM
[41]
  GI50: 2.84 µM
  TGI: 12.8 µM
[42]
  GI50: 4.9 µM
  TGI: 14.9 µM
[43]
  GI50: 0.416 µM
  TGI: 4.01 µM
[44]
  GI50: 5.57 µM
  TGI: 13.9 µM
[45]
  GI50: 14.1 µM
  TGI: > 35.8 µM
[46]
  GI50: 29 µM
  TGI: > 49 µM
[47]
  GI50: 0.395 µM
  TGI: 2.05 µM
[49]
  GI50: 6.35 µM
  TGI: 18.1 µM
[50]
  GI50: 7.55 µM
  TGI: 20 µM
[58]
  GI50: 0.5 µM
  TGI: 2.39 µM
[51]
  GI50: 0.83 µM
  TGI: 3.88 µM
[52]
  GI50: 28.7 µM
  TGI: > 50.4 µM
[53]
  GI50: 1.51 µM
  TGI: 4.14 µM

## CCOC(=O)C(Br)(C(N)=O)C1(O)OC(c2ccccc2)=C(Br)C1=O (stereo not drawn)
[2]
  TGI: 39.3 µM
[3]
  TGI: 92.9 µM
[4]
  TGI: 42.3 µM
[5]
  TGI: 41.5 µM
[6]
  TGI: 46.1 µM
[7]
  TGI: > 100 µM
[8]
  TGI: 43.1 µM
[9]
  TGI: 66.8 µM
[10]
  TGI: 53.7 µM
[11]
  TGI: 34.8 µM
[12]
  TGI: 81.2 µM
[13]
  TGI: > 100 µM
[15]
  TGI: > 100 µM
[16]
  TGI: > 100 µM
[17]
  TGI: > 100 µM
[18]
  TGI: 55.6 µM
[19]
  TGI: 33.3 µM
[54]
  TGI: 32.3 µM
[20]
  TGI: > 100 µM
[21]
  TGI: 37 µM
[55]
  TGI: 11.7 µM
[22]
  TGI: 34.4 µM
[23]
  TGI: 31.7 µM
[24]
  TGI: 55 µM
[25]
  TGI: 41.9 µM
[26]
  TGI: 27.7 µM
[27]
  TGI: 62.9 µM
[28]
  TGI: 30.7 µM
[56]
  TGI: > 100 µM
[57]
  TGI: > 100 µM
[29]
  TGI: 41 µM
[30]
  TGI: 33.3 µM
[31]
  TGI: 40.1 µM
[32]
  TGI: 32.3 µM
[33]
  TGI: 36.5 µM
[34]
  TGI: 59.6 µM
[35]
  TGI: 44 µM
[36]
  TGI: 34.3 µM
[37]
  TGI: 10.2 µM
[38]
  TGI: > 100 µM
[39]
  TGI: 36.3 µM
[40]
  TGI: 43.5 µM
[41]
  TGI: 32.6 µM
[42]
  TGI: > 100 µM
[43]
  TGI: 53.7 µM
[44]
  TGI: 60.2 µM
[46]
  TGI: > 100 µM
[47]
  TGI: 41.3 µM
[48]
  TGI: > 100 µM
[49]
  TGI: > 100 µM
[50]
  TGI: 46.8 µM
[51]
  TGI: 35 µM
[52]
  TGI: > 100 µM
[53]
  TGI: 33.6 µM
